In US9329188B2, “Method for detecting invasive microvesicles derived from tumor cells” (University of Notre Dame, priority 2010, dated 2016):

Tests used:
[1] = tested on: parental LOX and LOXARF6-GTP cells; assay: Microvesicle shedding: microvesicles released into media isolated and quantitated for protein, or surface microvesicles scored; assay type: cell-based
Method: Data from 5 independent experiments is plotted. Standard error bars are shown.
(§1) Standard error bars are shown.
Released microvesicles were isolated and quantitated for protein. The average of three independent experiments with standard error bars for each experimental condition is shown.
Parental LOX and LOXARF6-GTP were treated with 10 μM ML-7 for 2 hrs. Microvesicles released were isolated, quantitated for protein, and the data is shown as fold change in shedding relative to untreated LOX cells.
The total protein content of lysed microvesicles can be calculated, for example by using the Bradford assay (BioRad). This assay utilizes a spectroscopic analysis procedure to measure the concentration of protein in a solution.

ERK = conditions: cells treated with 1-butanol
Method: Studies have shown that ARF6 stimulates phospholipase D (PLD) activity (C. D'Souza-Schorey et al., Nat. Rev. Mol. Cell Biol. 7, 347-58 (2006)). […] Here, ARF6 regulated PLD activity and its involvement with ERK activation was tested. First, phospho-ERK levels upon PLD inactivation were examined. […] Next, primary alcohols were used to inhibit PLD, which results in the formation of phosphatidylalcohol at the expense of phosphatidic acid by replacing water.

LOX cells = conditions: cells expressing constitutively activated MEK; 1-butanol
From the text: Next, the role of phospho-ERK levels in microvesicle shedding was investigated. Specifically, microvesicle shedding was examined in LOXARF6-GDP cells after phospho-ERK levels were restored, or after stimulating PLD activity through pathways independent of ARF6. […] Finally, the effect of 1-butanol on microvesicle shedding induced by expression of constitutively activated MEK was investigated.

phospho-MLC [2] = assay: Phospho-MLC in cell lysates by western blotting, parental LOX and LOXARF6-GTP cells; assay type: cell-based
Method: Additional lanes on the immunoblot between lanes 2 and 3 were spliced out. Band density was measured by densitometric scanning.
(§2) Cell lines as indicated were treated with ML-7, and cell lysates were probed for phospho-MLC and α-tubulin by Western blotting. Band density was measured by densitometric scanning. Fold increase in the ratio of phospho-MLC to α-tubulin in ML-7 treated cells relative to untreated cells is shown.
Lysates of parental LOX and LOXARF6-GTP treated with Go6976 […] for 2 hrs at 37° C. were probed for phospho-MLC and α-tubulin by Western blotting.

phospho-MLC [3] = assay: Phospho-MLC in cell lysates by western blotting, LOXARF6-GDP cells; assay type: cell-based; conditions: Go6976 10 μM, ML-7 10 μM, U0126 30 μM for 2 hrs at 37° C.
Method: Cell lysates were probed for phospho-MLC, phospho-ERK and α-tubulin by western blotting.
as §2

PC3 and SW480 cell lines = conditions: MEK inhibition
From the text: Vesicle shedding was examined in other tumor cell lines; SW480, a colon carcinoma cell line, PC3, a prostate adenocarcinoma cell line, and MDA-MB-231, an invasive breast tumor cell line.

LOXARF6-GDP cells = assay: Microvesicle shedding, cells with microvesicles at the cell surface scored; assay type: cell-based; conditions: LOXARF6-GDP cells treated with propranolol or atenolol
From the text: as §1
The treated cells were visualized, and those with microvesicles present at the cell surface were scored as described above.

phospho-ERK = assay: Phospho-ERK and total-ERK in cell lysates, western blotting with densitometry; assay type: cell-based; conditions: LOXARF6-GDP cells; propranolol (0.1 mM), atenolol (10 uM)
From the text: The treated cells were probed for phospho-ERK and total-ERK. Band intensities were quantified by densitometry. The average of 3 independent experiments is plotted and standard error bars are shown.

cleaved caspase 3 = assay: Cleaved caspase 3 as sign of apoptosis; assay type: cell-based; conditions: cells treated with okadaic acid, compared with LOX cells expressing mutant ARF6
[4] = LOX cells treated with blebbistatin or latrunculin A

Q: `CCCCO` [1-butanol] was tested. Which microvesicle shedding ([1]; LOX cells, 0.3% 1-butanol for 30 min, cells with eight or more surface microvesicles scored) did it give?
A: inhibits

Q: What about the ERK activation (ERK) of the same compound?
A: inhibits

Q: And the “microvesicle shedding induced by constitutively activated MEK” value (LOX cells)?
A: little to no effect

Q: What does the source list for `Cn1c2ccccc2c2c3c(c4c5ccccc5n(CCC#N)c4c21)CNC3=O` [Go6976]?
A: phospho-MLC levels (phospho-MLC [2]; Go6976 for 2 hrs at 37° C.): no decrease; phospho-MLC levels / MLC phosphorylation (phospho-MLC [3]): decreased

Q: Which results are given for `O=S(=O)(c1cccc2c(I)cccc12)N1CCCNCC1` [ML-7]?
A: microvesicle shedding ([1]; parental LOX and LOXARF6-GTP cells, 10 μM ML-7 for 2 hrs): blocks; MLC phosphorylation (phospho-MLC [2]; 10 μM ML-7 for 2 hrs): blocked; phospho-MLC levels / MLC phosphorylation (phospho-MLC [3]; listed as ML7): little to no effect

Q: What does the source list for `N#CC(=C(/N)Sc1ccccc1N)/C(C#N)=C(\N)Sc1ccccc1N` [U0126]?
A: basal as well as ARF6-GTP enhanced microvesicle shedding [1]: significant inhibition; phospho-MLC levels (phospho-MLC [2]; U0126 (30 μM)): inhibition of phospho-MLC was evident; phospho-MLC levels / MLC phosphorylation (phospho-MLC [3]): no inhibition; microvesicle shedding (PC3 and SW480 cell lines): blocked microvesicle shedding

Q: Which results are given for `CC(C)NCC(O)COc1ccc(CC(N)=O)cc1` (centres unmarked) [atenolol]?
A: microvesicle shedding / release (LOXARF6-GDP cells): did not have any effect; phospho-ERK levels (phospho-ERK): did not have any effect

Q: With `Cc1ccc2c(c1)C(=O)C1(O)CCN(c3ccccc3)C1=N2` (centres unmarked) [blebbistatin] as the compound, how does the microvesicle formation ([1]; LOX cells in the presence of blebbistatin) read?
A: microvesicles do not form

Q: What about the microvesicle shedding [1, 4] of the same compound?
A: profoundly affected microvesicle shedding

Q: `C/C1=C/C(=O)O[C@@H]2C[C@@H](CC[C@H](C)/C=C\C=C\CC1)O[C@@](O)([C@@H]1CSC(=O)N1)C2` [latrunculin A] was tested. Which microvesicle shedding [1, 4] did it give?
A: profoundly affected microvesicle shedding

Q: And the “treated cells exhibiting clustered microvesicles at the cell surface” value ([1]; LOX cells treated with latrunculin A)?
A: 85-90%

Q: And the release of microvesicles ([1]; parental LOX and LOXARF6-GTP cells, 2 μM Latrunculin A for 45 min, released microvesicles quantitated for protein)?
A: inhibited

Q: `C=C1[C@@H](O)[C@@H]2O[C@]3(CC[C@H](/C=C/[C@@H](C)[C@@H]4CC(C)=C[C@@]5(O[C@H](C[C@@](C)(O)C(=O)O)CC[C@H]5O)O4)O3)CC[C@H]2O[C@@H]1[C@@H](O)C[C@H](C)[C@H]1O[C@@]2(CCCCO2)CC[C@H]1C` [okadaic acid] was tested. Which “cleaved caspase 3 in cells” value (cleaved caspase 3) did it give?
A: present in a higher proportion of the cells

Q: For `CC(C)NCC(O)COc1cccc2ccccc12` (centres unmarked) [propranolol], which “microvesicle shedding / release” value (LOXARF6-GDP cells) is on record?
A: induced microvesicle shedding

Q: And the “microvesicle shedding / release” value (LOXARF6-GDP cells; listed as Propranolol)?
A: restored vesicle shedding

Q: What about the phospho-ERK levels (phospho-ERK) of the same compound?
A: restored phospho-ERK levels
